As a reminder, the pIC50 is the IC50 on a negative log10 scale, so that one unit is a factor of ten.

Each structure is given as a SMILES string. pIC50: −log10 of the molar value.

For one assay, the target named is T1, full length mouse TREX1 (Mus musculus, UniProt Q91XB0).
T1 construct: N-terminally His-Tev tagged full length mouse TREX1; made in house; host or cells: E. coli
T1 sequence (Q91XB0 1-314): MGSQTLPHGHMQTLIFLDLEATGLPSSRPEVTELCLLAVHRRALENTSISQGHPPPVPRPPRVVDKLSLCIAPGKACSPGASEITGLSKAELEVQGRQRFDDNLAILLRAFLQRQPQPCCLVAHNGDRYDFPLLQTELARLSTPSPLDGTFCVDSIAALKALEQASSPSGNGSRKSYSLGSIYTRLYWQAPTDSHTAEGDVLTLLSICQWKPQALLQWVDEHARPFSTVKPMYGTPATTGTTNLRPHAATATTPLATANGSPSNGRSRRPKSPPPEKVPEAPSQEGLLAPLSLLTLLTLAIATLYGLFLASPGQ
The assay can be described thus: mTREX1 Biochemical Assay (fluorescence, dsDNA substrate degradation). The settings on record: biochemical, read-out: mTREX1 IC50. In a few lines:
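Reaction run 18 h at 25° C. with 60 nM TEX615/quencher-labelled dsDNA and 6 pM mouse TREX1 in Tris buffer (pH 7.4, 5 mM MgCl2, 1.0% DMSO), enzyme having sat 4 h with compound across 10 concentrations. EDTA quench; substrate degradation measured as fluorescence increase.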

In the next assay the target is T2, full length human TREX1 (Homo sapiens, UniProt Q9NSU2).
T2 construct: N-terminally His-Tev tagged full length human TREX1; made in house; host or cells: E. coli
T2 sequence (Q9NSU2 1-314): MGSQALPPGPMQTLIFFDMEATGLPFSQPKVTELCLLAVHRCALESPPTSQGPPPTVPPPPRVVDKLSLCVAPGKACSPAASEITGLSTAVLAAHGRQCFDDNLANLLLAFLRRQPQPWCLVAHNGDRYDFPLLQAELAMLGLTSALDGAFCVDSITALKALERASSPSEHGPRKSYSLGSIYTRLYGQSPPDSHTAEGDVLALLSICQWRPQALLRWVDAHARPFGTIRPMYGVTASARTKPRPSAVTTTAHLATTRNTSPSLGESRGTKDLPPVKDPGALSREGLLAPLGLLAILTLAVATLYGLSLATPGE
Kind of assay: hTREX1 Biochemical Assay (fluorescence, dsDNA substrate degradation). The settings on record: biochemical, read-out: hTREX1 IC50. In a few lines:
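Cleavage of 60 nM TEX615/quencher-labelled dsDNA in pH 7.4 Tris buffer with 5 mM MgCl2, 1.0% DMSO, run 18 hours at 25° C, EDTA-quenched; fluorescence read-out.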

Assay [1] concerns the target T3, human TREX2 (residues M44-A279) (Homo sapiens, UniProt Q9BQ50).
T3 construct: human TREX2 (residues M44-A279, expressed in E. coli); made in house; host or cells: E. coli
T3 sequence (Q9BQ50 44-279 isoform Q9BQ50-1): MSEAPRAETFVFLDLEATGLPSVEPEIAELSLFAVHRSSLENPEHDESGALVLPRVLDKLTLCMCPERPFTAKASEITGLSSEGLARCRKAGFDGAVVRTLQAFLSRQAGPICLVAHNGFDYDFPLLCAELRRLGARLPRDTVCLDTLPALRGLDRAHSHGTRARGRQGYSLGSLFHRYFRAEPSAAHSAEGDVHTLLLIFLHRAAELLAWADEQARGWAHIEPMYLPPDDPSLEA
Kind of assay: hTREX2 Biochemical Assay (fluorescence, dsDNA substrate degradation). The settings on record: biochemical selectivity for hTREX1 vs hTREX2. The procedure: Degradation of the dsDNA liberates free fluorophore to produce a fluorescent signal. Specifically, 7.5 μL of N-terminally His-Tev tagged human TREX2 (residues M44-A279, expressed in E. coli and purified in house) in reaction buffer (50 mM Tris, 150 mM NaCl, 2 mM DTT, 0.1 mg/mL BSA, 0.01% (w/v) Tween-20, 5 mM MgCl2, pH 7.4) was added to a 384-well Black ProxiPlate Plus (PerkinElmer) which already contained compound (150 nL) at varying concentrations as a 10 point dose-response in DMSO. The plate was incubated at 25° C. for 4 hours. Reactions were initiated by adding 7.5 μL of dsDNA substrate (Strand A: 5′ TEX615/GCT AGG CAG 3′; Strand B: 5′ CTG CCT AGC/IAbRQSp (IDT)) in reaction buffer. Final concentrations were 50 pM TREX2, 60 nM dsDNA substrate in reaction buffer with 1.0% DMSO (v/v). After 18 hours at 25° C., reactions were quenched by the addition of 2 μL of 500 mM EDTA. Final concentrations in the quenched reaction mixture were 44 pM TREX2, 53 nM DNA and 59 mM EDTA in a volume of 17 μL. After a 5-minute incubation at room temperature, plates were read in an EnVision plate reader (PerkinElmer) measuring fluorescence at 615 nm following excitation w/570 nm light.

With `CCn1cc(C(c2cc(F)ccc2Cl)C(C)c2nc(C(=O)Nc3cnoc3)c(O)c(=O)n2C)cn1` (single isomer, unassigned) [Example 60 D2E2], the pIC50 on full length mouse TREX1 and at full length human TREX1 was below 8.00 throughout. Also, the “hTREX1 vs hTREX2 selectivity” value in assay [1] is “A (A = <25 fold selective for hTREX1)”.

Consider `Cc1cnc(C(c2cc(F)ccc2Cl)C(C)c2nc(C(=O)Nc3cnoc3)c(O)c(=O)n2C)cn1` (single isomer, unassigned) [Example 117 D1E1], for which the negative logarithm of the IC50 (pIC50) at full length mouse TREX1 and on full length human TREX1 was below 8.00 throughout. The “hTREX1 vs hTREX2 selectivity” value in assay [1] is “A (A = <25 fold selective for hTREX1)”.

With `CC(c1nc(C(=O)Nc2cnoc2)c(O)c(=O)n1C)C(c1cnn(CC(F)(F)F)c1)c1ccccc1C#N` (single isomer, unassigned) [Example 22 D2E1], the pIC50 at full length mouse TREX1 and on full length human TREX1 was below 8.00 each time. Besides, in assay [1], the “hTREX1 vs hTREX2 selectivity” value is listed as “B (B = 25 to 50-fold selective for hTREX1)”.

With `Cc1nnc(C(c2ccccc2Cl)C(C)c2nc(C(=O)Nc3cnoc3)c(O)c(=O)n2C)o1` (single isomer, unassigned) [Example 156 D2E2], the negative logarithm of the IC50 (pIC50) on full length mouse TREX1 was below 8.00; at full length human TREX1 it was 8.00 to 9.00. Moreover, the “hTREX1 vs hTREX2 selectivity” value in assay [1] was “B (B = 25 to 50-fold selective for hTREX1)”.

With `CC(c1nc(C(=O)Nc2cnoc2)c(O)c(=O)n1C)C(c1cnn(C)c1)c1ccc(Cl)cc1C#N` (single isomer, unassigned) [Example 27 D1E2], the pIC50 at full length mouse TREX1 and on full length human TREX1 was below 8.00 throughout. In assay [1], the “hTREX1 vs hTREX2 selectivity” value is “C (C = >50 fold selective for hTREX1)”.

As to `CC(c1nc(C(=O)Nc2cnoc2)c(O)c(=O)n1C)C(c1cnccn1)c1ccccc1C#N` (single isomer, unassigned) [Example 66 D1E1], the negative-log IC50 (pIC50) at full length mouse TREX1 and at full length human TREX1 was above 9.00 each time. For the same molecule, in assay [1], the “hTREX1 vs hTREX2 selectivity” value was “B (B = 25 to 50-fold selective for hTREX1)”.

As for `Cc1cnc(C(c2ccccc2C#N)C(C)c2nc(C(=O)Nc3cnoc3)c(O)c(=O)n2C)c(C)n1` (single isomer, unassigned) [Example 123 D2E2], the pIC50 at full length mouse TREX1 and at full length human TREX1 was below 8.00 each time. Moreover, in assay [1], the “hTREX1 vs hTREX2 selectivity” value is reported as “A (A = <25 fold selective for hTREX1)”.

With `Cc1cnc(C(c2cc(F)ccc2C#N)C(C)c2nc(C(=O)Nc3cnoc3)c(O)c(=O)n2C)cn1` (single isomer, unassigned) [Example 115 D1E1], the negative-log IC50 (pIC50) at full length mouse TREX1 and at full length human TREX1 was below 8.00 in each case. In addition, the “hTREX1 vs hTREX2 selectivity” value in assay [1] is on record as “A (A = <25 fold selective for hTREX1)”.

Regarding `Cc1ncc(C(c2cc(F)ccc2C#N)C(C)c2nc(C(=O)Nc3cnoc3)c(O)c(=O)n2C)nc1C` (single isomer, unassigned) [Example 124 D1E1], the pIC50 on full length mouse TREX1 and on full length human TREX1 was below 8.00 each time. Further, the “hTREX1 vs hTREX2 selectivity” value in assay [1] is “A (A = <25 fold selective for hTREX1)”.

`CC(c1nc(C(=O)Nc2cnoc2)c(O)c(=O)n1C)C(c1cocn1)c1ccccc1C#N` (single isomer, unassigned) [Example 50 D2E1]: the negative logarithm of the IC50 (pIC50) on full length mouse TREX1 and on full length human TREX1 was below 8.00 each time. The “hTREX1 vs hTREX2 selectivity” value in assay [1] is “C (C = >50 fold selective for hTREX1)”.

Consider `COCCn1cc(C(c2cc(F)ccc2Cl)C(C)c2nc(C(=O)Nc3cnoc3)c(O)c(=O)n2C)cn1` (single isomer, unassigned) [Example 97 D1E2], for which the figures for the negative logarithm of the IC50 (pIC50) on full length mouse TREX1 and at full length human TREX1 were below 8.00 and 8.00 to 9.00, respectively. Moreover, in assay [1], the “hTREX1 vs hTREX2 selectivity” value is listed as “A (A = <25 fold selective for hTREX1)”.

Regarding `Cc1cnc(C(c2ccccc2C#N)C(C)c2nc(C(=O)Nc3cnoc3)c(O)c(=O)n2C)c(C)n1` (single isomer, unassigned) [Example 123 D2E1], the negative-log IC50 (pIC50) on full length mouse TREX1 is below 8.00; on full length human TREX1, 8.00 to 9.00. Besides, in assay [1], the “hTREX1 vs hTREX2 selectivity” value was “C (C = >50 fold selective for hTREX1)”.

For the molecule `CC(c1nc(C(=O)Nc2cnoc2)c(O)c(=O)n1C)C(c1cnn(C2COC2)c1)c1ccccc1C#N` (single isomer, unassigned) [Example 106 D2E1], the negative-log IC50 (pIC50) at full length mouse TREX1 and on full length human TREX1 was below 8.00 throughout. The “hTREX1 vs hTREX2 selectivity” value in assay [1] is “B (B = 25 to 50-fold selective for hTREX1)”.

For the molecule `CC(c1nc(C(=O)Nc2cnoc2)c(O)c(=O)n1C)C(c1cnn(C(C)C)c1)c1ccccc1C#N` (single isomer, unassigned) [Example 105 D2E2], the negative-log IC50 (pIC50) on full length mouse TREX1 and on full length human TREX1 was below 8.00 each time. The “hTREX1 vs hTREX2 selectivity” value in assay [1] is on record as “A (A = <25 fold selective for hTREX1)”.

Take `CC(c1nc(C(=O)Nc2cnoc2)c(O)c(=O)n1C)C(c1cnn(C)c1)c1ccc(O)cc1C#N` (single isomer, unassigned) [Example 80 D2E1]: the pIC50 at full length mouse TREX1 and at full length human TREX1 was below 8.00 each time.

For `CC(c1nc(C(=O)Nc2cnoc2)c(O)c(=O)n1C)C(c1cnn(C)c1)c1cc(F)c(F)cc1C#N` (single isomer, unassigned) [Example 25 D1E2], the pIC50 at full length mouse TREX1 and at full length human TREX1 was below 8.00 throughout.

For the molecule `Cc1ncc(C(c2ccccc2Cl)C(C)c2nc(C(=O)Nc3cnoc3)c(O)c(=O)n2C)cn1` (single isomer, unassigned) [Example 44 D2E1], the pIC50 at full length mouse TREX1 and at full length human TREX1 was below 8.00 in each case.

Consider `CC(c1nc(C(=O)Nc2cnoc2)c(O)c(=O)n1C)C(c1cnn(CCN2CCNCC2)c1)c1ccccc1C#N` (single isomer, unassigned) [Example 31 D2E1], for which the pIC50 at full length mouse TREX1 and on full length human TREX1 was below 8.00 in each case.

Consider `CCn1cc(C(c2ccccc2C#N)C(C)c2nc(C(=O)Nc3cnoc3)c(O)c(=O)n2C)c(C)n1` (single isomer, unassigned) [Example 70 D1E2], for which the negative-log IC50 (pIC50) at full length mouse TREX1 and on full length human TREX1 was below 8.00 in each case.

Regarding `COCCn1cc(C(c2ccccc2C#N)C(C)c2nc(C(=O)Nc3cnoc3)c(O)c(=O)n2C)cn1` (single isomer, unassigned) [Example 9 D1E2], the negative-log IC50 (pIC50) at full length mouse TREX1 and at full length human TREX1 was below 8.00 in each case.

On to `CCn1cc(C(c2cc(F)c(F)cc2Cl)C(C)c2nc(C(=O)Nc3cnoc3)c(O)c(=O)n2C)cn1` (single isomer, unassigned) [Example 72 D2E2], for which the pIC50 at full length mouse TREX1 and at full length human TREX1 was below 8.00 each time.

As to `Cc1nn(C)cc1C(c1ccc(F)cc1C#N)C(C)c1nc(C(=O)Nc2cnoc2)c(O)c(=O)n1C` (single isomer, unassigned) [Example 56 D2E1], the results for the pIC50 on full length mouse TREX1 and on full length human TREX1 were below 8.00 and 8.00 to 9.00, respectively.

`CC(c1nc(C(=O)Nc2cnoc2)c(O)c(=O)n1C)C(c1cnn(CC2CC2)c1)c1ccccc1C#N` (single isomer, unassigned) [Example 23 D2E2]: the negative-log IC50 (pIC50) on full length mouse TREX1 and at full length human TREX1 was below 8.00 throughout.

On to `Cc1cc(C(c2cc(F)ccc2C#N)C(C)c2nc(C(=O)Nc3cnoc3)c(O)c(=O)n2C)n(C)n1` (single isomer, unassigned) [Example 111 D1E1], for which the negative logarithm of the IC50 (pIC50) at full length mouse TREX1 and on full length human TREX1 was below 8.00 in each case.

With `CC(c1nc(C(=O)Nc2cnoc2)c(O)c(=O)n1C)C(c1ccccc1C#N)c1c(C#N)cnn1C` (single isomer, unassigned) [Example 52 D1E2], the negative logarithm of the IC50 (pIC50) at full length mouse TREX1 and at full length human TREX1 was below 8.00 throughout.
